This passage reports IC50 results from patent publication US20120213758A1, “BIARYL PDE4 INHIBITORS FOR TREATING PULMONARY AND CARDIOVASCULAR DISORDERS” (DeCODE Genetics enf, priority 2007, published 2012).

Counter-ions that a name gives are not always drawn. Like-named read-outs stand apart in the source and are kept apart here.

The target of assay [1] is hPDE4D (Homo sapiens, UniProt Q08499). Briefly: In-vitro real-time enzyme-coupled spectrophotometric assay for PDE4 enzymes (hPDE4D).
Assay [2] has as its target hPDE4B (Homo sapiens, UniProt Q07343). Nature of the assay: In-vitro real-time enzyme-coupled spectrophotometric assay for PDE4 enzymes (hPDE4B).
Where [3] appears, read: read-out: hPDE4D activity, enzyme-coupled NADH assay, absorbance at 340 nm.
Setting [4] is: read-out: hPDE4B activity, enzyme-coupled NADH assay, absorbance at 340 nm.

Chain of hPDE4D (Q08499 whole entry): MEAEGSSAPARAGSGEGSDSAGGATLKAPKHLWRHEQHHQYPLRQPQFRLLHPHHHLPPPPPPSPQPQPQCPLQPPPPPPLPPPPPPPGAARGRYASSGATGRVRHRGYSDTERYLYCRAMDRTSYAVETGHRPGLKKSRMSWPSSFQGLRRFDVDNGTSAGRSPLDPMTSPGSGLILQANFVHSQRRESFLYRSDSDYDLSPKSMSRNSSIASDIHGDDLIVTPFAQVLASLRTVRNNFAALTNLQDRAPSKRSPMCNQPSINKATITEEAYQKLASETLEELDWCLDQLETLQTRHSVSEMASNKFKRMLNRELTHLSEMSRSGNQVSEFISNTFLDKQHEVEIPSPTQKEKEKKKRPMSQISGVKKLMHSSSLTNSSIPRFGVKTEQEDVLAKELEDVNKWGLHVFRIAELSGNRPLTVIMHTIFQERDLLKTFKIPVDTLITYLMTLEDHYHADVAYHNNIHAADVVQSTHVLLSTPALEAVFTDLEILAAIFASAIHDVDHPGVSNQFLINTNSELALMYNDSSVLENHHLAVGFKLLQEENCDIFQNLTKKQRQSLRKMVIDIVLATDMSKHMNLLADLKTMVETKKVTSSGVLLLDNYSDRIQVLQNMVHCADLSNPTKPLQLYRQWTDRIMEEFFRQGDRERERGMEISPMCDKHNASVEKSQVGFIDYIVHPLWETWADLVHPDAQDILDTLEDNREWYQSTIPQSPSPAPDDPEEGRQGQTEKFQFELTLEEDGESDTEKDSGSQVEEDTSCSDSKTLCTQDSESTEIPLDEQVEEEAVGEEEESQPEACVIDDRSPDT
Chain of hPDE4B (Q07343 whole entry): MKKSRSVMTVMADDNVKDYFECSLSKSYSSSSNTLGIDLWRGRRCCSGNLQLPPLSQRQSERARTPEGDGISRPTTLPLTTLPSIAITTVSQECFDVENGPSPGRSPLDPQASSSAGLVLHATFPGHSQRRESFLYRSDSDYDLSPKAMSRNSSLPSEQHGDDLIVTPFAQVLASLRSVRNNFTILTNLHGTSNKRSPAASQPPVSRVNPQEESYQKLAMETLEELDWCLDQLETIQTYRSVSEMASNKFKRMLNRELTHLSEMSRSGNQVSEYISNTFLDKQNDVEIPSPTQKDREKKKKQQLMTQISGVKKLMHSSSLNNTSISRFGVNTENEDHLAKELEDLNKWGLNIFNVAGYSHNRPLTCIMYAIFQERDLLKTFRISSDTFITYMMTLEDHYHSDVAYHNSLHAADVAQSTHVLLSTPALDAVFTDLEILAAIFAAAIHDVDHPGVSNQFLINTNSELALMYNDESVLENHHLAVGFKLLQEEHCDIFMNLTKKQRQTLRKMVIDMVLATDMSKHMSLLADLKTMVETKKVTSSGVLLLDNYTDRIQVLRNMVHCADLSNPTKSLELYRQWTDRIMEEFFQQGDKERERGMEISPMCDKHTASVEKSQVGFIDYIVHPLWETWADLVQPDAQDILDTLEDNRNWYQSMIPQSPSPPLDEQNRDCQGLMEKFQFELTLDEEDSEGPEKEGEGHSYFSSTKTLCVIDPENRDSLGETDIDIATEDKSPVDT

Consider “1-[5-(3′-Chloro-2-fluoro-6-methoxy-biphenyl-3-ylmethyl)-pyrimitlin-2-yl]-piperidine-2-carboxylic acid [Example A-041]”, for which the values for the IC50 in assay [1] (setting [3]) and in assay [2] (setting [4]) were under 5 µM and 5 to 20 µM, respectively. In assay [1], `COc1ccc(CN2C(=O)c3ccccc3S2(=O)=O)cc1-c1cccc([N+](=O)[O-])c1` [Example A-002, 2-(6-Methoxy-3′-nitro-biphenyl-3-ylmethyl)-1,1-dioxo-1,2-dihydro-1lambda*6*-benzo[d]isothiazol-3-one] displayed an IC50 of 5 to 20 µM.

With `COc1ccc(Cn2cnc3c(Cl)nc(N)nc32)cc1-c1cccc([N+](=O)[O-])c1` [Example A-003, 6-Chloro-9-(6-methoxy-3′-nitro-biphenyl-3-ylmethyl)-9H-purin-2-ylamine], the IC50 was under 5 µM in assay [1] and 5 to 20 µM in assay [2].

`COc1ccc(Cn2cnc3c(=O)[nH]c(N)nc32)cc1-c1cccc([N+](=O)[O-])c1` [Example A-004, 2-Amino-9-(6-methoxy-3′-nitro-biphenyl-3-ylmethyl)-1,9-dihydro-purin-6-one]: the figures for the IC50 in assay [1] and in assay [2] were 5 to 20 µM and 20 to 40 µM, respectively. `COC(=O)[C@H]1C[C@H](O)CN1Cc1ccc(OC)c(-c2cccc([N+](=O)[O-])c2)c1` [Example A-005, (2R,4S)-4-Hydroxy-1-(6-methoxy-3′-nitro-biphenyl-3-ylmethyl)-pyrrolidine-2-carboxylic acid methyl ester] registered an IC50 in assay [1] of 20 to 40 µM.

For `COc1ccc(Cc2c(C)nn(CC(=O)O)c2C)cc1-c1cccc([N+](=O)[O-])c1` [Example A-006, [4-(6-Methoxy-3′-nitro-biphenyl-3-ylmethyl)-3,5-dimethyl-pyrazol-1-yl]-acetic acid], the IC50 is under 5 µM in assay [1] and 5 to 20 µM in assay [2]. As to `COc1ccc(Cn2ccc(C(=O)O)cc2=O)cc1-c1cccc([N+](=O)[O-])c1` [Example A-007, 1-(6-Methoxy-3′-nitro-biphenyl-3-ylmethyl)-2-oxo-1,2-dihydro-pyridine-4-carboxylic acid], the IC50 in assay [1] and in assay [2] was 5 to 20 µM throughout. Regarding `COc1ccc(Cc2ccc(NS(N)(=O)=O)cc2)c(F)c1-c1cccc(Cl)c1` [Example A-008], the IC50 in assay [1] and in assay [2] was under 5 µM throughout. As to `COc1ccc(Cc2ccc(NS(N)(=O)=O)nc2)c(F)c1-c1cccc(Cl)c1` [Example A-010], the IC50 in assay [1] and in assay [2] was under 5 µM in each case. Consider `COc1ccc(Cc2ccc(NS(N)(=O)=O)c(O)c2)c(F)c1-c1cccc(Cl)c1` [Example A-011], for which the IC50 is under 5 µM in assay [1] and 5 to 20 µM in assay [2].

As to `COc1ccc(Cc2cnc(NS(N)(=O)=O)nc2)c(F)c1-c1cccc(Cl)c1` [Example A-012], the IC50 in assay [1] and in assay [2] was under 5 µM throughout. On to `COc1ccc(Cc2ccc(NC(N)=O)[n+]([O-])c2)c(F)c1-c1cccc(Cl)c1` [Example A-014], for which the IC50 was under 5 µM in assay [1] and 5 to 20 µM in assay [2]. The like results for `COc1ccc(Cc2cnc(NC(N)=O)[n+]([O-])c2)c(F)c1-c1cccc(Cl)c1` [Example A-015] were, in that order, under 5 µM and under 5 µM. On to `COc1ccc(Cc2ccc(NS(N)(=O)=O)cc2)c(F)c1-c1cccc(C(C)=O)c1` [Example A-016], for which the IC50 in assay [1] and in assay [2] was under 5 µM in each case.

For the molecule `COc1ccc(Cc2cnc(NS(N)(=O)=O)nc2)c(F)c1-c1cccc(C(C)=O)c1` [Example A-017], the IC50 in assay [1] and in assay [2] was under 5 µM in each case. As for `COC(=O)c1ccc(Cc2ccc(OC)c(-c3cccc(C(C)=O)c3)c2F)cc1` [Example A-018, 4-(3′-Acetyl-2-fluoro-6-methoxy-biphenyl-3-ylmethyl)-benzoic acid methyl ester], the IC50 is under 5 µM in assay [1] and 20 to 40 µM in assay [2]. For `COc1ccc(Cc2ccc(C(=O)O)cc2)c(F)c1-c1cccc(C(C)=O)c1` [Example A-019, 4-(3′-Acetyl-2-fluoro-6-methoxy-biphenyl-3-ylmethyl)-benzoic acid], the IC50 is under 5 µM in assay [1] and 5 to 20 µM in assay [2]. The like results for `COC(=O)c1ccc(Cc2ccc(OC)c(-c3cccc(C(C)=O)c3)c2F)cn1` [Example A-020, 5-(3′-Acetyl-2-fluoro-6-methoxy-biphenyl-3-ylmethyl)-pyridine-2-carboxylic acid methyl ester] were, in that order, under 5 µM and under 5 µM. For `COc1ccc(Cc2ccc(C(=O)O)nc2)c(F)c1-c1cccc(C(C)=O)c1` [Example A-021, 5-(3′-Acetyl-2-fluoro-6-methoxy-biphenyl-3-ylmethyl)-pyridine-2-carboxylic acid], the IC50 in assay [1] and in assay [2] was 5 to 20 µM throughout. `COc1ccc(Cc2ccc(NC(=O)NCC(=O)O)cc2)c(F)c1-c1cccc(Br)c1` [Example A-022, {3-[4-(3′-Bromo-2-fluoro-6-methoxy-biphenyl-3-ylmethyl)-phenyl]-ureido}-acetic acid]: the IC50 in assay [1] was under 5 µM. Still for that read-out and setting: in the case of `COc1ccc(Cc2ccc(NC(=O)NCCC(=O)O)cc2)c(F)c1-c1cccc(Br)c1` [Example A-023, 3-{3-[4-(3′-Bromo-2-fluoro-6-methoxy-biphenyl-3-ylmethyl)-phenyl]-ureido}-propionic acid] it was under 5 µM; in that of `CCOC(=O)CNC(=O)Nc1nnc(Cc2ccc(OC)c(-c3cccc(Cl)c3)c2F)s1` [Example A-024, {3-[5-(3′-Chloro-2-fluoro-6-methoxy-biphenyl-3-ylmethyl)-[1,3,4]thiadiazol-2-yl]-ureido}-acetic acid ethyl ester], under 5 µM. Same read-out and setting: in the case of `CCOC(=O)CCNC(=O)Nc1nnc(Cc2ccc(OC)c(-c3cccc(Cl)c3)c2F)s1` [Example A-025, 3-{3-[5-(3′-Chloro-2-fluoro-6-methoxy-biphenyl-3-ylmethyl)-[1,3,4]thiadiazol-2-yl]-ureido}-propionic acid ethyl ester] it was under 5 µM. Same read-out and setting: the same measure for `COc1ccc(Cc2nnc(NC(=O)NCC(=O)O)s2)c(F)c1-c1cccc(Cl)c1` [Example A-026, {3-[5-(3′-Chloro-2-fluoro-6-methoxy-biphenyl-3-ylmethyl)-[1,3,4]thiadiazol-2-yl]-ureido}-acetic acid]: under 5 µM. With `CCOC(=O)CCNC(=O)Nc1ccc(Cc2ccc(OC)c(-c3cccc(Cl)c3)c2F)cn1` [Example A-029], the IC50 in assay [1] was under 5 µM. Molecule `CCOC(=O)C1CCN(C(=O)c2ccc(Cc3ccc(OC)c(-c4cccc(Cl)c4)c3F)cn2)CC1` [Example A-033, 1-[5-(3′-Chloro-2-fluoro-6-methoxy-biphenyl-3-ylmethyl)-pyridine-2-carbonyl]-piperidine-4-carboxylic acid ethyl ester] had an IC50 in assay [1] of under 5 µM.

With `CCOC(=O)c1cn2cc(Cc3ccc(OC)c(-c4cccc(Cl)c4)c3F)ccc2n1` [Example A-039, 6-(3′-Chloro-2-fluoro-6-methoxy-biphenyl-3-ylmethyl)-imidazo[1,2-a]pyridine-2-carboxylic acid ethyl ester], the IC50 in assay [1] was under 5 µM.

`COC(=O)C1CCN(c2ncc(Cc3ccc(OC)c(-c4cccc(Cl)c4)c3F)cn2)C1` (stereo not drawn) [Example A-045, 1-[5-(3′-Chloro-2-fluoro-6-methoxy-biphenyl-3-ylmethyl)-pyrimidin-2-yl]-pyrrolidine-3-carboxylic acid methyl ester]: the IC50 in assay [1] is under 5 µM. In the case of `COc1ccc(Cc2ccc(N3CCC3C(=O)O)nc2)c(F)c1-c1cccc(Cl)c1` (stereo not drawn) [Example A-055, 1-[5-(3′-chloro-2-fluoro-6-methoxy-biphenyl-3-ylmethyl)-pyridin-2-yl]-azetidine-2-carboxylic acid], the IC50 in assay [2] (setting [4]) is under 5 µM.

In the case of `CCNC(=O)N(CC(=O)O)c1ccc(Cc2ccc(OC)c(-c3cccc(Cl)c3)c2F)cn1` [Example A-056, {1-[5-(3′-chloro-2-fluoro-6-methoxy-biphenyl-3-ylmethyl)-pyridin-2-yl]-3-ethyl-ureido}-acetic acid], in assay [1], the IC50 was under 5 µM. Regarding `NC(=O)Nc1ccc(Cc2ccc(OS(=O)(=O)O)c(-c3cccc(Cl)c3)c2)cc1` [Example A-062, Sodium sulfate of [4-(3′-Chloro-6-hydroxy-biphenyl-3-ylmethyl)-phenyl]-urea], the IC50 in assay [1] (setting [3]) is under 5 µM. With `COC(=O)[C@@H]1CCCN1c1ccc(Cc2ccc(OC)c(-c3cccc(Cl)c3)c2F)cn1` [Example A-069, (S)-1-[5-(3′-chloro-2-fluoro-6-methoxy-biphenyl-3-ylmethyl)-pyridin-2-yl]-pyrrolidine-2-carboxylic acid methyl ester], the IC50 in assay [1] was under 5 µM. On the same count and under the same terms, in the case of `COc1ccc(Cc2ccc(C(=O)O)nc2)cc1-c1cccc(Cl)c1` [Example A-071, 5-(3′-Chloro-6-methoxy-biphenyl-3-ylmethyl)-pyridine-2-carboxylic acid] it was under 5 µM; in that of `COc1ccc(Cc2ccc(N(C)CC(=O)O)nc2)cc1-c1cccc(Cl)c1` [Example A-077, {[5-(3′-chloro-6-methoxy-biphenyl-3-ylmethyl)-pyridin-2-yl]-methyl-amino}-acetic acid], under 5 µM; in that of `CN(CC(=O)O)c1ccc(Cc2ccc(OC(F)F)c(-c3cccc(Cl)c3)c2)cn1` [Example A-078, {[5-(3′-Chloro-6-difluoromethoxy-biphenyl-3-ylmethyl)-pyridin-2-yl]-methyl-amino}-acetic acid], under 5 µM. Take `C[C@H](C(=O)O)N(C)c1ccc(Cc2ccc(OC(F)F)c(-c3cccc(Cl)c3)c2)cn1` [Example A-079, (R)-2-{[5-(3′-Chloro-6-difluoromethoxy-biphenyl-3-ylmethyl)-pyridin-2-yl]-methyl-amino}-propionic acid]: the IC50 in assay [1] is under 5 µM. Molecule `COc1ccc(Cc2ccc(F)cc2)cc1-c1ccc[n+]([O-])c1` [Example B-084, 3-[5-(4-Fluoro-benzyl)-2methoxy-phenyl]-pyridine 1-oxide] gave an IC50 in assay [1] of 5 to 20 µM.
